Assay results from ChEMBL document CHEMBL1759896, “Asymmetric total synthesis of (+)- and (-)-clusianone and (+)- and (-)-clusianone methyl enol ether via ACC alkylation and evaluation of their anti-HIV activity” (Bioorg Med Chem Lett, 2011).
Active and inactive are the calls of the source. The rule behind the calls is not given here.

Columns and labels:
Format in all cases: functional, organism-based
[1] = tested on: Human immunodeficiency virus 1; experiment: Antiviral activity against HIV1 Env-pseudovirus infected in mouse 3T3.T4.CCR5 cells after 2 days by luciferase assay
[2] = tested on: Human immunodeficiency virus 1; experiment: Antiviral activity against HIV1 Env-pseudovirus infected in human Jurkat E6-1 cells after 2 days by luciferase assay; settings: for IC50: Human immunodeficiency virus 1, Jurkat, 48 h
[3] = tested on: Human immunodeficiency virus 1; experiment: Antiviral activity against HIV1 MN infected in human C8166 cells; settings: Human immunodeficiency virus 1, MN

## COC1=C(C(=O)c2ccccc2)C(=O)[C@]2(CC=C(C)C)C[C@H](CC=C(C)C)C(C)(C)C1(CC=C(C)C)C2=O
[1]; 3t3.t4.ccr5
  IC50: Not Active

## CC(C)=CC[C@H]1C[C@]2(CC=C(C)C)C(=O)[C@@](CC=C(C)C)(C(=O)C(C(=O)c3ccccc3)=C2O)C1(C)C (stereo in doubt; 1)
[2]
  Activity: Active

## CC(C)=CC[C@H]1C[C@]2(CC=C(C)C)C(=O)[C@@](CC=C(C)C)(C(=O)C(C(=O)c3ccccc3)=C2O)C1(C)C (stereo in doubt; 1) [6-EPI-CLUSIANONE]
[3]
  EC50: 20 nM
[1]; Human immunodeficiency virus 1, 3T3.T4.CCR5, 48 h, read-out: IC50
  IC50: 1530 nM

## CC(C)=CC[C@H]1C[C@]2(CC=C(C)C)C(=O)[C@@](CC=C(C)C)(C(=O)C(C(=O)c3ccccc3)=C2O)C1(C)C (stereo in doubt; 2)
[2]
  Activity: Active

## CC(C)=CC[C@H]1C[C@]2(CC=C(C)C)C(=O)[C@@](CC=C(C)C)(C(=O)C(C(=O)c3ccccc3)=C2O)C1(C)C (stereo in doubt; 2) [6-EPI-CLUSIANONE]
[1]; 3t3.t4.ccr5, read-out: IC50
  IC50: 1130 nM

## Cc1ccnc2c1NC(=O)c1cccnc1N2C1CC1 [NEVIRAPINE]
[2]
  IC50: 40 nM

## Cc1cn([C@H]2C[C@H](N=[N+]=[N-])[C@@H](CO)O2)c(=O)[nH]c1=O [ZIDOVUDINE]
[2]
  IC50: 120 nM
